Values quoted from earlier work as cited in patent publication US20040248850A1, “Compounds for the treatment of HIV infection” (Kemia, Inc., priority 2003, published 2004).

System: Human Immunodeficiency Virus Type 1
Details: in cell culture

For enfuvirtide, the EC50 is listed as 1 ng/mL.
